In publication PMC8076288, “Effect of respiratory inhibitors and quinone analogues on the aerobic electron transport system of Eikenella corrodens” (Scientific Reports, 2021):

Assays:
[1] = biological target: T1, bc1 complex (complex III) (Eikenella corrodens, UniProt V7IIL5); assay: polarographic O2 uptake (Clark electrode), succinate oxidase of membranes; type: biochemical; details: succinate as substrate, 34 °C; read-out is the whole succinate respiration
T1 construct: gene HMPREF1177_00380; native complex in isolated membrane particles, not purified; with Ubiquinol-cytochrome c reductase iron-sulfur subunit; Cytochrome c1
T1 sequence (V7IIL5 1-530): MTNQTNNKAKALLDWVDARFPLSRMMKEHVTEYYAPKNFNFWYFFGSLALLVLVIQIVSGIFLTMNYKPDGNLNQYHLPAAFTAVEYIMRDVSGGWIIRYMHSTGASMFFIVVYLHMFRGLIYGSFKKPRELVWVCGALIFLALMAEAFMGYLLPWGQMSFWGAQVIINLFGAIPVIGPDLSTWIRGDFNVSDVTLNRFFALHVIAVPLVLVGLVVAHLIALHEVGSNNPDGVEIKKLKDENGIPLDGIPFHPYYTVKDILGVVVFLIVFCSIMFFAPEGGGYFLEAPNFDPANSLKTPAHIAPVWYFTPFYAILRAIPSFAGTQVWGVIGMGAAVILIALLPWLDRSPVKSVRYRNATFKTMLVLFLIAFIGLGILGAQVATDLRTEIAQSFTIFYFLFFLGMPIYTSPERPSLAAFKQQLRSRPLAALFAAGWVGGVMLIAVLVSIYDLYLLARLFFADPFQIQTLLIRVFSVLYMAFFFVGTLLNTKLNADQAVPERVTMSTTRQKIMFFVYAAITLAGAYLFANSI
T1 sequence (V7IHH9 1-197 partner): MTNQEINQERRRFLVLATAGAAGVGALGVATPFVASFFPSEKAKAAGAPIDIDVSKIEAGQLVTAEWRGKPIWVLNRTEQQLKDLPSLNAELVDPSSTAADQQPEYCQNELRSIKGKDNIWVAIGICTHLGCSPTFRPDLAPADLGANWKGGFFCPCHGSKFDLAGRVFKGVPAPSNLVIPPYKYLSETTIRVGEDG

[2] = biological target: T2, dissimilatory nitrate reductase, Nar (Eikenella corrodens, UniProt V7IBI8); assay: oxidation of reduced methyl viologen at […] nm, membranes; type: biochemical; details: 1 mM dithionite-reduced methyl viologen, 2 mM nitrate, pH 7.4, anaerobic
T2 construct: gene HMPREF1177_02096; with Respiratory nitrate reductase beta subunit; Respiratory nitrate reductase gamma subunit
T2 sequence (V7IA22 entry or part of it): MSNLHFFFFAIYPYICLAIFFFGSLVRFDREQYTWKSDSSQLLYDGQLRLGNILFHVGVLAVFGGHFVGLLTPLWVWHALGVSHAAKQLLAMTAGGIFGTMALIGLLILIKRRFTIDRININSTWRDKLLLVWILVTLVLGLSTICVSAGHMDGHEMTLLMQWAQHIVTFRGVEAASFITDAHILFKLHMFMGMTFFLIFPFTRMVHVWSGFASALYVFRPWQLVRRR
T2 sequence (V7IBP6 entry or part of it, further chain): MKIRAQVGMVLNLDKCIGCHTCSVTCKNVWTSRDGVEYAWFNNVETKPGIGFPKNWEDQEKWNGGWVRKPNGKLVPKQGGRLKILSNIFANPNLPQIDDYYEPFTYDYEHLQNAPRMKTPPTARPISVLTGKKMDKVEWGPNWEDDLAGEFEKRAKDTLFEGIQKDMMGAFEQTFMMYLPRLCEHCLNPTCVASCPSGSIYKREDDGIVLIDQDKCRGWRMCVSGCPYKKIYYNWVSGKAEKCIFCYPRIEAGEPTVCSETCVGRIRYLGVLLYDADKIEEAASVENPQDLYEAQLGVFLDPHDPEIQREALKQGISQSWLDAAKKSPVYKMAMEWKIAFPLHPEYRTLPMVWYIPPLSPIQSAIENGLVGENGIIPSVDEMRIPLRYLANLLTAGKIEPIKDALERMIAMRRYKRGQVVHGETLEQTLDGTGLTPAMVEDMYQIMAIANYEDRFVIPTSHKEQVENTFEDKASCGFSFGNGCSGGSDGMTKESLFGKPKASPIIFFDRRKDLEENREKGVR
T2 sequence (V7IBI8 entry or part of it): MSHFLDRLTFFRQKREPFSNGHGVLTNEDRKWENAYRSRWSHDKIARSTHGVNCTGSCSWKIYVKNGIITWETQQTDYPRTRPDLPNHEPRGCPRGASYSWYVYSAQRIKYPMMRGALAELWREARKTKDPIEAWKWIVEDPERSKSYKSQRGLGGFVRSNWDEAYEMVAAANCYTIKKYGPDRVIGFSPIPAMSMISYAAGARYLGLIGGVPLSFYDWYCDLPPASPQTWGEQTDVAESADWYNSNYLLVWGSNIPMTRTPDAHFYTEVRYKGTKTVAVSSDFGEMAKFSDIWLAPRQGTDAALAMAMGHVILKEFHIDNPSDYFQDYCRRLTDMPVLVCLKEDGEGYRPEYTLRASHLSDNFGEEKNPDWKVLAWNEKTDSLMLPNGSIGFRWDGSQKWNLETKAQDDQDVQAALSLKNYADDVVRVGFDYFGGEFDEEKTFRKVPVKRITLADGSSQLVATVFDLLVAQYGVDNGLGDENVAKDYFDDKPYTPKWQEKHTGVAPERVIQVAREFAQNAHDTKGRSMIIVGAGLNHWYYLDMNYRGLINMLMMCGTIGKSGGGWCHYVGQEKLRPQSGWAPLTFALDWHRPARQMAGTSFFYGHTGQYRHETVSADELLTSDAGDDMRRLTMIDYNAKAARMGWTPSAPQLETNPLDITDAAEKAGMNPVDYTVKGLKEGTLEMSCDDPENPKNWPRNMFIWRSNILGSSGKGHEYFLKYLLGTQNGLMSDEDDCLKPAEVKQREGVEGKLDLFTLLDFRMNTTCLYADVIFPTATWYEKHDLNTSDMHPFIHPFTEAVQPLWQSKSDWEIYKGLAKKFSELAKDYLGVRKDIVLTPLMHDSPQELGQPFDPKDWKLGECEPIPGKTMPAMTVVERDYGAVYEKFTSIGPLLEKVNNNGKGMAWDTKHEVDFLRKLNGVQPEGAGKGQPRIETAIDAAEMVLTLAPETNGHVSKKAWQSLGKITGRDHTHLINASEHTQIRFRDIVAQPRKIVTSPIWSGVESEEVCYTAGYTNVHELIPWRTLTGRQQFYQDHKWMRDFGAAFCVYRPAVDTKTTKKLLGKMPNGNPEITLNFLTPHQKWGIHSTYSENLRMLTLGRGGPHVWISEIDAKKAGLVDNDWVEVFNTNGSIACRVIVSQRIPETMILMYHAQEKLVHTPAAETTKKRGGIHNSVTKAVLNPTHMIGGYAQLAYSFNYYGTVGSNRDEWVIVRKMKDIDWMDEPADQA

Compound	IC50 [1] [µM]	oxidation of reduced methyl viologen at 600 nm, membranes [2]
CCCCCCCc1cc(O)c2ccccc2[n+]1[O-] [HQNO, 2-heptyl-4-hydroxyquinoline-N-oxide]	40	
O=[N+]([O-])O [nitrate]		The reaction was started by the injection of an anaerobic solution of potassium nitrate
antimycin A3	20	
